Assay results published in ChEMBL document CHEMBL1201862, “PubChem BioAssay data set” (2004).
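In this assay, cells in 96-well plates receive the compound at five concentrations for 48 hours. Endpoints are linearly interpolated between the surrounding concentrations. The concentration for 50% growth inhibition is given as GI50.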 Active and inactive are the calls of the source. No stated cut-off is given here; in the data, active = GI50 up to about 1.1 µM and inactive = higher.

Legend:
Test in all cases: inhibition of tumour cell growth, NCI panel, 48 h
[1] = system: 786-0
[2] = system: A498
[3] = system: A549
[4] = system: ACHN
[5] = system: BT-549
[6] = system: CAKI-1
[7] = system: CCRF-CEM
[8] = system: COLO 205
[9] = system: DU-145
[10] = system: EKVX
[11] = system: HCC 2998
[12] = system: HCT-116
[13] = system: HCT-15
[14] = system: HL-60
[15] = system: HOP-62
[16] = system: HOP-92
[17] = system: HT-29
[18] = system: Hs-578T
[19] = system: IGROV-1
[20] = system: K562
[21] = system: KM12
[22] = system: LOX IMVI
[23] = system: M14
[24] = system: MCF7
[25] = system: MDA-MB-231
[26] = system: MDA-MB-435
[27] = system: MOLT-4
[28] = system: Malme-3M
[29] = system: NCI-H23
[30] = system: NCI-H460
[31] = system: NCI-H522
[32] = system: NCI/ADR-RES
[33] = system: OVCAR-3
[34] = system: OVCAR-4
[35] = system: OVCAR-5
[36] = system: OVCAR-8
[37] = system: PC-3
[38] = system: RPMI-8226
[39] = system: RXF 393
[40] = system: SF-268
[41] = system: SF-295
[42] = system: SF-539
[43] = system: SK-MEL-28
[44] = system: SK-MEL-2
[45] = system: SK-MEL-5
[46] = system: SK-OV-3
[47] = system: SN12C
[48] = system: SNB-19
[49] = system: SNB-75
[50] = system: SR
[51] = system: SW-620
[52] = system: T47D
[53] = system: TK-10
[54] = system: U-251
[55] = system: UACC-257
[56] = system: UACC-62
[57] = system: UO-31

Compound: CN(CCCNC(=O)c1nn(C)c2c1Cc1ccccc1-2)CCCNC(=O)c1nn(C)c2c1Cc1ccccc1-2
- GI50 [1]: 10.7 µM (inactive)
- GI50 [2]: 17 µM (inactive)
- GI50 [3]: 16.5 µM (inactive)
- GI50 [4]: 16.7 µM (inactive)
- GI50 [5]: 21 µM (inactive)
- GI50 [6]: 18.7 µM (inactive)
- GI50 [7]: 2.18 µM (inactive)
- GI50 [8]: 13.7 µM (inactive)
- GI50 [9]: 16.9 µM (inactive)
- GI50 [10]: 19.2 µM (inactive)
- GI50 [11]: 8.22 µM (inactive)
- GI50 [12]: 14.3 µM (inactive)
- GI50 [13]: 17.7 µM
- GI50 [14]: 5.28 µM (inactive)
- GI50 [15]: 10.8 µM (inactive)
- GI50 [16]: 15.6 µM (inactive)
- GI50 [17]: 13.3 µM (inactive)
- GI50 [18]: 20.5 µM (inactive)
- GI50 [19]: 15.3 µM (inactive)
- GI50 [20]: 7.94 µM (inactive)
- GI50 [21]: 16.2 µM (inactive)
- GI50 [22]: 2.49 µM (inactive)
- GI50 [23]: 6.15 µM (inactive)
- GI50 [24]: 15 µM (inactive)
- GI50 [25]: 19.3 µM (inactive)
- GI50 [26]: 10.8 µM (inactive)
- GI50 [27]: 4.73 µM (inactive)
- GI50 [28]: 20.5 µM (inactive)
- GI50 [29]: 21.9 µM (inactive)
- GI50 [30]: 18 µM (inactive)
- GI50 [31]: 21.8 µM (inactive)
- GI50 [32]: 24.4 µM (inactive)
- GI50 [33]: 16.1 µM (inactive)
- GI50 [34]: 16.3 µM (inactive)
- GI50 [35]: 18.3 µM (inactive)
- GI50 [36]: 19.6 µM (inactive)
- GI50 [37]: 16.2 µM (inactive)
- GI50 [38]: 13.3 µM (inactive)
- GI50 [39]: 13.9 µM (inactive)
- GI50 [40]: 19.2 µM (inactive)
- GI50 [41]: 18.2 µM (inactive)
- GI50 [42]: 16.4 µM (inactive)
- GI50 [43]: 20.1 µM (inactive)
- GI50 [44]: 16 µM (inactive)
- GI50 [45]: 13.5 µM (inactive)
- GI50 [46]: 16 µM (inactive)
- GI50 [47]: 16.5 µM (inactive)
- GI50 [48]: 9.53 µM (inactive)
- GI50 [49]: 15.2 µM (inactive)
- GI50 [50]: 2.99 µM (inactive)
- GI50 [51]: 10.1 µM (inactive)
- GI50 [52]: 22.5 µM (inactive)
- GI50 [53]: 19.1 µM (inactive)
- GI50 [54]: 12.5 µM (inactive)
- GI50 [55]: 12.1 µM (inactive)
- GI50 [56]: 19.4 µM (inactive)
- GI50 [57]: 0.614 µM (active)
